Data published in patent US9138457B2, “Therapeutic modulation of ocular surface lubrication” (THE REGENTS OF THE UNIVERSITY OF CALIFORNIA, priority 2008, dated 2015).
Like-named read-outs stand apart in the source and are kept apart here.

Tested on: PRG4 mRNA
Conditions: primary human corneal epithelial cells; for increase in PRG4 mRNA levels relative to the control levels at Day 0: 10 nM DHT
Method: (§1) Cells were grown in keratinocyte serum free media until reaching about 80% confluence. Cells (n=3 wells/treatment/experiment) were then incubated with either vehicle or 10 nM dihydrotestosterone (DHT) for up to 5 days. At designated times cells were processed for total RNA isolation and analysis of PRG4 mRNA mRNA by RT-PCR.
as §1, with “Methods. Cells were” for “Cells were”, “by RT-PCR. Results.” for “by RT-PCR.”

C[C@]12CCC(=O)C[C@@H]1CC[C@@H]1[C@@H]2CC[C@]2(C)[C@@H](O)CC[C@@H]12 [DHT, dihydrotestosterone]
increase in PRG4 mRNA levels relative to the control levels at Day 0 (3 days of hormone exposure): 10.3 fold | increase in PRG4 mRNA levels relative to the control levels at Day 0 (4 days of hormone exposure): 3.6 fold | increase in PRG4 mRNA levels relative to the control levels at Day 0 (5 days of hormone exposure): 2.8 fold | increase in PRG4 mRNA content relative to that of vehicle-treated controls (another experiment, treatment of cells for 5 days with DHT): 46 fold
